Experimental data taken from US11524010B2, “Substituted quinazoline sulfonamides as thioredoxin interacting protein (TXNIP) inhibitors” (SOUTHERN RESEARCH INSTITUTE, priority 2017, dated 2022).

Assays:
TXNIP = assay: Inhibition of glucose-induced endogenous TXNIP expression in INS-1 cells (qRT-PCR); format: cell-based, Rat; conditions: Rattus norvegicus, INS1, 24 h, 25 mM glucose; for inhibition at 1.5 µM: 1.5 μM compound; for inhibition at 12.5 µM: 12.5 μM compound
Method: The Rat INS-1 cell line was obtained from UAB and maintained in RPMI-1640 (Invitrogen #11875) supplemented with 10% fetal bovine serum (FBS), 100 U/ml penicillin and […] streptomycin, 10 mM HEPES, 1 mM Sodium Pyruvate, 50 μM 2-Mercaptoethanol, and 11.1 mM Glucose in a humidified incubator with a 5% C02 atmosphere at 37° C. 4×10^4 cells per well were seeded to 96-well plate and incubated at 37° C. overnight. A subset of the cells were then cultured in medium with 5 mM Glucose for 24 hrs and then treated in medium with 25 mM glucose with or without compounds to be tested for another 24 hrs.
For the primary high throughput screening (HTS) assay, stably transfected, monoclonal INS-1 cells were split using Trypsin (2 ml per T75 flask) and seeded at a density of 10^4/well in a 384-well plate and incubated overnight at low, 5 mM glucose. The next day, the medium was changed to high glucose (25 mM) or high glucose plus the small molecules to be tested and luciferase assays were performed 24 h later. […] For secondary screens, total RNA was extracted from 96-well cultured cells using RNeasy 96 kit (Qiagen #74181) following the manufacturer's protocol using spin technology. Then a one-step qRT-PCR amplification was performed using QuantiFast SYBR Green RT-PCR kit (Qiagen #204154) and was carried out in a 10 μl reaction which consisted of 2 μl RNA, 0.5 μM each of primers (Rat TXNIP 5′ primer: […] (SEQ ID NO:1) and Rat TXNIP 3′ primer: […] (SEQ ID NO:2); Or Rat 18S rRNA 5′ primer: […] (SEQ ID NO:3) and Rat 18S rRNA 3′ primer: […]) (SEQ ID NO:4), 5 μl 2×SYBR Green Master Mix, 0.1 μl 10× QuantiFast RT Mix. The SYBR Green assay was performed using a LightCycler 480 II (Roche Applied Science) with an initial incubation at 50° C. for 10 min for RT followed by denaturation at 95° C. for 5 min. Forty cycles of amplification were performed using a thermal cycling profile of 95° C. for 10s, 60° C. for 30 s. Subsequently, a melting curve was recorded by holding at 95° C. for 60 s, cooling to 60° C. for 60 s, and then heating at 0.11° C./s up to 95° C. The data was collected and analyzed using the LightCycler 480 Software Release 1.5.0 SP3. The relative amount of TXNIP mRNA was normalized to 18 s rRNA level as a housekeeping gene, and the data was analyzed according to the 2^−ΔΔCT method (1). The transformed data was expressed as % inhibition and compound IC50 calculated by a 4-parameter logistic fit of the data using GraphPad Prism 7.

[1] = INS-1 cell viability (Cell Titer-Glo, ATP); format: cell-based, Rat; conditions: rat, INS-1 cells, 72 hrs treatment
Method: INS-1 cell viability was determined based on quantification of ATP using Cell Titer-Glo Luminescent Cell Viability Assay kit (Promega #G7572), which indicates the presence of metabolically active cells. Briefly, INS-1 cells were seeded into 96-well plates at a cell density of 4.5×10^4 and 3.5×10^4 cells per well and incubated overnight at 37° C. with 5% CO2. On the following day, cells were treated with compounds for 24 hrs and 72 hrs respectively. Cell Titer-Glo reagent was added to the cells and Luminescence was acquired on Synergy 4 Reader ([…]).

Compound	inhibition at 1.5 µM (TXNIP) [%]	inhibition at 12.5 µM (TXNIP) [%]	CC50 at 72 h [1] [µM]
CS(=O)(=O)NCC1CCCN(c2ncnc3c(Cl)cc(F)cc23)C1 (stereo not drawn) [Compound 10, N-((1-(8-chloro-6-fluoroquinazolin-4-yl)piperidin-3-yl)methyl)methanesulfonamide]	23	51	> 100
CS(=O)(=O)NCC1CN(c2ncnc3cc(C(N)=O)c(F)cc23)CCO1 (stereo not drawn) [Compound 47, 6-fluoro-4-(2-(methylsulfonamidomethyl)morpholino)quinazoline-7-carboxamide]	5	7	> 100
O=S(=O)(NCC1CCCN(c2ncnc3ccc(C(F)(F)F)cc23)C1)C1CC1 (stereo not drawn) [Compound 57, N-((1-(6-(trifluoromethyl)quinazolin-4-yl)piperidin-3-yl)methyl)cyclopropanesulfonamide]	33	67	43
CS(=O)(=O)NCC1CCCN(c2ncnc3cccc(F)c23)C1 (stereo not drawn) [Compound 2, N-((1-(5-fluoroquinazolin-4-yl)piperidin-3-yl)methyl)methanesulfonamide]	13	61	> 100
CS(=O)(=O)NC1CCCN(c2ncnc3cc(F)ccc23)C1 (stereo not drawn) [Compound 32, N-(1-(7-fluoroquinazolin-4-yl)piperidin-3-yl)methanesulfonamide]	21	62	65
CC(C)c1nc(N2CCCC(CNS(C)(=O)=O)C2)c2ccccc2n1 (stereo not drawn) [Compound 15, N-((1-(2-isopropylquinazolin-4-yl)piperidin-3-yl)methyl)methanesulfonamide]	0	20	73
CS(=O)(=O)NC1CCCN(c2ncnc3cc(F)c(C#N)cc23)C1 (stereo not drawn) [Compound 37, N-(1-(6-cyano-7-fluoroquinazolin-4-yl)piperidin-3-yl)methanesulfonamide]	0	24	> 100
CS(=O)(=O)NC1CCCN(c2ncnc3ccc(C(F)(F)F)cc23)C1 (stereo not drawn) [Compound 38, N-(1-(6-(trifluoromethyl)quinazolin-4-yl)piperidin-3-yl)methanesulfonamide]	34	60	> 100
CS(=O)(=O)NCC1CCCN(c2nc(-c3ccccc3)nc3ccccc23)C1 (stereo not drawn) [Compound 9, N-((1-(2-phenylquinazolin-4-yl)piperidin-3-yl)methyl)methanesulfonamide]	0	10	71
CS(=O)(=O)NCC1CCCN(c2ncnc3ccc(-c4ncco4)cc23)C1 (stereo not drawn) [Compound 26, N-((1-(6-(oxazol-2-yl)quinazolin-4-yl)piperidin-3-yl)methyl)methanesulfonamide]	2	28	> 100
CC(C)N(CC1CCCN(c2ncnc3ccccc23)C1)S(C)(=O)=O (stereo not drawn) [Compound 40, N-isopropyl-N-((1-(quinazolin-4-yl)piperidin-3-yl)methyl)methanesulfonamide]	14	46	70
CS(=O)(=O)NCC1CCCN(c2nc[n+]([O-])c3ccc(C(F)(F)F)cc23)C1 (stereo not drawn) [Compound 61, 4-(3-(methylsulfonamidomethyl)piperidin-1-yl)-6-(trifluoromethyl)quinazoline 1-oxide]	2	25	> 100
CC1(CNS(C)(=O)=O)CCCN(c2ncnc3cc(F)c(C#N)cc23)C1 (stereo not drawn) [Compound 48]	3	26	> 100
CS(=O)(=O)NCC1CCCN(c2ncnc3c(F)cccc23)C1 (stereo not drawn) [Compound 3, N-((1-(8-fluoroquinazolin-4-yl)piperidin-3-yl)methyl)methanesulfonamide]	4	59	> 100
N#Cc1cc2ncnc(N3CCCC(CNS(=O)(=O)C(F)(F)F)C3)c2cc1F (stereo not drawn) [Compound 53, N-((1-(7-cyano-6-fluoroquinazolin-4-yl)piperidin-3-yl)methyl)-1,1,1-trifluoromethanesulfonamide]	7	24	> 100
CS(=O)(=O)NCC1CCCN(c2ncnc3cc(F)c(C#N)cc23)C1 (stereo not drawn) [Compound 29, N-((1-(6-cyano-7-fluoroquinazolin-4-yl)piperidin-3-yl)methyl)methanesulfonamide]	39	66	> 100
O=S(=O)(NCC1CCCN(c2ncnc3ccc(F)cc23)C1)C1CC1 (stereo not drawn) [Compound 58, N-((1-(6-fluoroquinazolin-4-yl)piperidin-3-yl)methyl)cyclopropanesulfonamide]	15	65	57
CC(C)Nc1nc(N2CCCC(CNS(C)(=O)=O)C2)c2ccccc2n1 (stereo not drawn) [Compound 16, N-((1-(2-(isopropylamino)quinazolin-4-yl)piperidin-3-yl)methyl)methanesulfonamide]	0	33	> 100
CS(=O)(=O)NCC1(O)CCCN(c2ncnc3cc(F)c(C#N)cc23)C1 (stereo not drawn) [Compound 49, N-((1-(6-cyano-7-fluoroquinazolin-4-yl)-3-hydroxypiperidin-3-yl)methyl)methanesulfonamide]	2	2	> 100
CS(=O)(=O)NCC1CCCN(c2ncnc3ccc(F)cc23)C1 (stereo not drawn) [Compound 1, N-((1-(6-fluoroquinazolin-4-yl)piperidin-3-yl)methyl)methanesulfonamide]	44	54	> 100
O=S(=O)(NCC1CCCN(c2ncnc3ccc(F)cc23)C1)N1CCOCC1 (stereo not drawn) [Compound 60, N-((1-(6-fluoroquinazolin-4-yl)piperidin-3-yl)methyl)morpholine-4-sulfonamide]	32	56	16
CS(=O)(=O)NCC1CCCN(c2nc(O)nc3ccc(C(F)(F)F)cc23)C1 (stereo not drawn) [Compound 62, N-((1-(2-hydroxy-6-(trifluoromethyl)quinazolin-4-yl)piperidin-3-yl)methyl)methanesulfonamide]	20	20	> 100
CC(NS(C)(=O)=O)C1CCCN(c2ncnc3cc(F)c(F)cc23)C1 (stereo not drawn) [Compound 45, N-(1-(1-(6,7-difluoroquinazolin-4-yl)piperidin-3-yl)ethyl)methanesulfonamide]	22	44	> 100
CS(=O)(=O)NCC1CCN(c2ncnc3ccc(F)cc23)C1 (stereo not drawn) [Compound 51, N-((1-(6-fluoroquinazolin-4-yl)pyrrolidin-3-yl)methyl)methanesulfonamide]	18	20	> 100
CS(=O)(=O)NCC1CCCN(c2ncnc3ccc(S(C)(=O)=O)cc23)C1 (stereo not drawn) [Compound 14, N-((1-(6-(methylsulfonyl)quinazolin-4-yl)piperidin-3-yl)methyl)methanesulfonamide]	0	24	> 100
CS(=O)(=O)NCC1CCCN(c2ncnc3ccc(C#N)cc23)C1 (stereo not drawn) [Compound 13, N-((1-(6-cyanoquinazolin-4-yl)piperidin-3-yl)methyl)methanesulfonamide]	41	1	42
